From PMC9138683, “Decoding the Role of Melatonin Structure on Plasmodium falciparum Human Malaria Parasites Synchronization Using 2-Sulfenylindoles Derivatives” (Biomolecules, 2022)
“Also recorded” adds a separate entry of the source.

What was measured:
[1] = system: P. falciparum 3D7 parasites; assay: Effects of indole derivatives (500 nM) on parasitemia; type: cell-based, Plasmodium falciparum; settings: for Parasitemia (%), melatonin alone: normalized to DMSO control (100.6%), compound-alone experiment
Protocol: (§1) To evaluate the role of the compounds in parasitemia, 1% 3D7 parasites in 2% hematocrit were incubated for 48 h with 500 nM of the 2-sulfenylindole derivatives. Melatonin (100 nM) was used as a positive control, and DMSO (0.0013% v/v) was used as a negative control. The concentration of DMSO chosen as control was the concentration present in the tested compounds at 500 nM. The activity of the compounds was measured by SG-I and MT-Red staining. The data obtained were normalized to those of the control (DMSO). Additionally, to test the ability of the compounds to affect melatonin activity in parasitemia, 3D7 parasites were incubated with 500 nM indole compounds along with 100 nM melatonin for 48 h.
After incubation, the final parasitemia was determined using flow cytometry.

Cytotoxicity assay (MTT) = type: cell-based, human; settings: human, HEK293T (HEK293) cells, 0.10-100 µM, read-out: CC50 ± SD HEK293
Protocol: (§2) HEK293T (human embryonic kidney) cells were cultured in 75 cm^2 vented tissue culture flasks (Greiner Bio-One, Frickenhausen, Germany) at 37 °C in a humidified atmosphere containing 5% CO2 in Dulbecco’s modified […] (Gibco) supplemented with 10% (v/v) fetal bovine serum (Gibco), 100 U/mL penicillin, and 100 μg/mL streptomycin (Sigma). Cytotoxicity was evaluated with the 4,5-dimethylthiazol-2-yl-2,5-diphenyltetrazolium bromide (MTT) cell proliferation assay. Briefly, 10^4 cells/well were seeded in flat-bottom 96-well plates in complete DMEM medium for 24 h, followed by incubation with different concentrations of each compound (0.10–100 µM) for 72 h. DMSO (0.13%) and digitonin were used as the negative and positive controls, respectively. The concentrations of DMSO chosen as control were the concentration present in the tested compounds (from 0.0001% to 0.12%, two-fold dilution). After 72 h, cells were then incubated with the MTT reagent for 3 h, and absorbance was measured at 570 nm using a FlexStation® 3 Multi-Mode Microplate Reader (Molecular Devices, Sunnyvale, CA, USA). Moreover, we calculated the selectivity indexes (SI) to understand whether the compounds were more toxic to parasites than cells, or vice versa, according to the ratio of the CC50 value to the IC50 value for each compound.
(§3) We further assessed the toxicity of 2-sulfenylindole compounds against HEK293 cells using the MTT assay with different concentrations of the compounds for 72 h. Table 1 presents all the toxicity data and summarizes the IC50 values of the compounds evaluated in this study for Dd2 and 3D7 strains.

HEK293 cell line = assay: Cytotoxicity assay (MTT); type: cell-based, human; settings: 72 h
Protocol: as §2, §3

[2] = system: Plasmodium falciparum 3D7 (chloroquine-sensitive); assay: In vitro drug susceptibility assay, 3D7 strain (flow cytometry, SYBR Green I / MitoTracker Deep Red); type: cell-based; settings: Plasmodium falciparum, 3D7, 72 h, asynchronous parasites, 72 h, 0.1-100 µM; read-out: IC50 ± SD Pf3D7
Protocol: The cultures were maintained under an atmosphere of 5% CO2, 5% O2, and 90% N2. Fresh complete medium was provided daily, and rapid-stained (Panotico) blood smears were examined.
To evaluate the effects of synthetic compounds on the intraerythrocytic development of P. falciparum, we analyzed parasitemia by flow cytometry with 0.3% initial parasitemia and 1% hematocrit in the assay. Plates were incubated with the compounds at concentrations ranging from 0.10 to 100 µM for 72 h. Dual staining with SYBR Green I (SG-I) (Invitrogen, Waltham, MA, USA) and MitoTracker Deep Red (MT-Red) (Invitrogen) were used to label nucleic acids and mitochondria, respectively. Approximately 10,000 cells were counted by an Accuri C6 (Becton Dickinson, San Jose, CA, USA) and analyzed by FlowJo 5 software. Parasitemia was determined from the analysis of dot plots (side scatter versus fluorescence).
We determined the susceptibility of P. falciparum to the indole compounds and investigated whether CQR parasites responded differently to the compounds. […] We determined the IC50 values for each compound by analyzing viable and non-viable parasites after compound treatment, represented in dot plots (Figure 1H).

[3] = system: P. falciparum 3D7 parasites; assay: Effect of 2-sulfenylindoles in combination with 100 nM melatonin on parasitemia; type: cell-based, Plasmodium falciparum; settings: 3D7, 48 h; for Parasitemia (%), melatonin alone: 100 nM melatonin only, normalized to DMSO control (100.7%), combination experiment
Protocol: as §1
Following the assumption that compounds resembling melatonin structure might interact through the melatonin signaling pathways, we evaluated the effect of the compounds on melatonin action on parasitemia. Our next step was to study the combination of 2-sulfenylindoles with melatonin in asynchronous 3D7 by incubating parasites simultaneously with 100 nM melatonin and 500 nM of each compound.

P. falciparum 3D7 strain = assay: Blood-stage development evaluation by microscopy; type: cell-based, Plasmodium falciparum
Protocol: Ring-stage parasites (10–14 h) at 1% parasitemia in 2% hematocrit were treated with compound 20 and compound 28 at concentrations of 1 and 30 µM in 24-well plates for 48 h. Treatment with chloroquine (20 nM) and DMSO (0.1%) was used as positive and negative controls. Smears were rapid stained (Panotico) every 12 h after treatment (12, 24, 36, 48, and 60 h time points), and we took images of parasites to assess the blood-stage development (Zeiss, Oberkochen, Germany).
During monitoring, parasites continued to develop throughout the cycle in the presence of both compounds. […] To examine its stage specificity, we monitored development every 12 h.
Figure 5 Parasitemia reduction with compound 20 (A) and compound 28 (B) to determine the stage activity. Data are means ± SD. Ring-stage synchronized parasites with sorbitol 5% were treated with chloroquine (20 nM), compound 20 (30 µM), and compound 28 (30 µM). The chosen treatment concentration was the IC50 values obtained for these compounds against the 3D7 parasites. (C) After drug administration, smears of P. falciparum 3D7 strain were taken at 0, 12, 24, 36, 48, and 60 h after drug administration, observing the growth development of treated parasites. * p ≤ 0.05, ** p ≤ 0.01, *** p ≤ 0.001.

[4] = system: CDPKs, PKG, and its accessory genes; assay: Real-time PCR of CDPKs, PKG and accessory genes after melatonin treatment; type: cell-based, Plasmodium falciparum
Protocol: P. falciparum trophozoites (approximately 30–34 h post invasion) were treated with 100 nM and 1 µM melatonin (SIGMA-Aldrich, Burlington, MA, USA). RNA was extracted with Trizol (Life Technologies, Carlsbad, CA, USA) 1 and 3 h post treatment. cDNA synthesis was carried out using random primers and Superscript IV reverse transcriptase (Life Technologies) according to the manufacturer’s protocol. Oligonucleotides used are listed in Supplementary Table S1. SYBR Green incorporation was measured during PCR amplification performed on the 7300 Real-Time PCR System (Applied Biosystems, Foster City, CA, USA). The statistical analysis was performed by applying Student’s t-test on the log2 values of relative expression (delta delta Ct method) of the genes (normalized with the seryl t-RNA synthase housekeeping gene).
Previous studies have shown that melatonin alters the expression of the ubiquitin/proteasome system, mitochondrial FIS1, DYN2 [27], and nuclear PfMORC [28]. These findings lead us to investigate the effect of melatonin on kinases, phosphodiesterase, and cyclase for two reasons; first, kinases and their components are required for rupturing the parasites to facilitate egress in both asexual and sexual stages. […] We treated the late-stage trophozoite with two different melatonin concentrations (100 nM and 1 µM) for two time points (1 and 3 h). […] It is possible that melatonin may act upstream of PKG and modulates cytosolic calcium, but this hypothesis requires more experimental validation.
Figure 6 Differential transcription of CDPKs, PKG, and its accessory genes from parasites treated with melatonin for 1 and 3 h. Sorbitol synchronized parasites were treated with melatonin, and RNA samples were extracted, purified, and transcript level was investigated by RT-qPCR. Expression of genes has been normalized by housekeeping seryl-tRNA Synthetase expression for (A) 100 nM melatonin for 1 h; (B) 100 nM melatonin for 3 h; (C) 1 μM melatonin for 1 h; and (D) 1 μM melatonin for 3 h. […]

In the case of `COC(=O)Cc1c(SCCCCCCCCCCC(=O)O)[nH]c2ccccc12` [Compound 20], the “effect on parasitemia (in words)” value ([1]; 500 nM compound alone, 3D7 asynchronous, 48 h) is reported as “led to an increase in parasitemia; also recorded: significantly increase the parasitemia”, the increase in parasitemia ([1]; 500 nM compound, 3D7, 48 h, compared to DMSO control (100.6%)) is reported as 9.1% and the activity at 0.5 µM ([1]; Plasmodium falciparum, 3D7, 48 h, normalized to DMSO control, read-out: Parasitemia (%) Treatment with compound (500nM)) is reported as 110 ± 4.07%. The CC50 at 72 h (Cytotoxicity assay (MTT)) was > 100 µM, the “cytotoxic effect against HEK293 cells (in words)” value (HEK293 cell line) was “low cytotoxic effect” and the IC50 [2] was 28.8 ± 4.86 µM. The “Parasitemia (%) Treatment with compound (500nM) + Melatonin (100nM)” value ([3]; normalized to DMSO control) was 122.3 ± 3.71%, the “effect on parasitemia during blood-stage progression” value (P. falciparum 3D7 strain; 3D7, ring-stage synchronized, 30 µM (IC50), Figure 5A,B) was “significantly affect parasitemia” and the “stage-specific effect on blood-stage development” value (P. falciparum 3D7 strain; ring-stage synchronized 3D7, treated at IC50 (30 µM for 20 and 28), monitored every 12 h) was “affects RBC reinvasion”.
In the case of `COc1ccc2[nH]cc(CCNC(C)=O)c2c1` [Melatonin], the rise in parasitemia ([1]; 100 nM melatonin, 3D7, 48 h, from 100.6% (control)) is reported as 6.9%, the “Parasitemia (%), melatonin alone” value ([1]; 100 nM melatonin, 3D7, 48 h) is reported as 107.5 ± 4.32% and the “Parasitemia (%), melatonin alone” value ([1]; 100 nM melatonin, 3D7, 48 h, listed as melatonin) is reported as 107.5%. The “change in gene expression” value ([4]; 100 nM melatonin for 1 h, late-stage trophozoite, CDPK1 and GCα) was “very minor effect”, the “change in gene expression” value ([4]; 100 nM melatonin, after 3 h, additional CDPK6, CDPK7, PKG, PDEα, and GCβ) was “increased expression” and the “change in gene expression” value ([4]; 1 µM melatonin for 3 h, cGMP-dependent signaling component) was “most prominent effect”. For the same compound, the “Parasitemia (%), melatonin alone” value [3] was 113.5 ± 2.75% and the “Parasitemia (%), melatonin alone” value ([3]; listed as melatonin) was 113.5%.
